Laboratory results published in article PMC11960431, “A novel function of short cationic peptide FP-CATH9 without antimicrobial activity reverses resistance to minocycline in common multidrug-resistant gram-negative bacteria” (Microbiology Spectrum, 2025).
Ends that are not written are not given here.

How the values were obtained:
[1] = tested on: Clinical K. pneumoniae 3 (minocycline resistance); assay: Disk diffusion plate assay, inhibition zone (peptide alone and antibiotic sensitization); details: for Inhibition zone (mm) Contains FP-CATH9 / Inhibition zone (mm) Normal saline control: K. pneumoniae strain 3, mean ± SD, repeated three times; for Inhibition zone (mm) Contains FP-CATH9: antibiotic disk + FP-CATH9 (20 µg peptide in 10 µL); for Inhibition zone (mm) Normal saline control: antibiotic disk + normal saline, without FP-CATH9
[2] = tested on: Multidrug-resistant K. pneumoniae; assay: Checkerboard assay, FP-CATH9 and minocycline; details: 18 h
[3] = tested on: Clinical A. baumannii 3 (minocycline resistance); assay: Disk diffusion plate assay, inhibition zone; type: cell-based, Acinetobacter baumannii; details: Multidrug-resistant A. baumannii strain 3; MH paper + 10 µL normal saline; Fig 3B
Experimental: (§1) The antimicrobial activity of FP-CATH9 was determined through broth microdilution and plate assays in an antibiotic disk diffusion test.
(§2) The MIC of FP-CATH9 was determined using broth microdilution as recommended by Clinical and Laboratory Standards Institute (CLSI). Sensitivity to other antibiotics was assessed using the VITEK 2 Compact System (bioMerieux, France). Antimicrobial activity was determined using the Clinical and Laboratory Standards Institute (CLSI) Standard Reference method([17]).
(§3) The concentration of the FP-CATH9 mother solution was 2 mg/mL. The control conditions included MH paper + normal saline (10 µL) , experimental conditions included MH paper + FP-CATH9 (10 µL). Total 10 µL was added to MH paper to detect the dose dependence of sensitization.

[4] = tested on: minocycline-resistant K. pneumoniae strain 3; assay: G. mellonella infection assay; type: in vivo, Galleria mellonella; details: G. mellonella larvae, n = 10, infected with K. pneumoniae strain 3; 16 µg/mL; 7 days
Experimental: The G. mellonella model of bacterial infection was used to evaluate the combined protective effect of FP-CATH9 and minocycline. In each G. mellonella group (n = 10), G. mellonella survival was recorded every 24 h after infection. […] After the infected group was injectioned with minocycline -resistant K. pneumoniae strain 3 , the larvae all died within 1 day.
Refer to the method of a reference ([22]). Monoclonal K. pneumoniae strain 3 was selected and cultivated in 5 mL LB broth using a constant temperature oscillator at 200 rpm/min and 37°C for 12 h. After 12 h, the culture was expanded and diluted at the ratio of 1:100. The logarithmic bacterial solution was taken, washed with normal saline, and then suspended in 1 mL system with a concentration of 1.5 × 10^8 CFU/mL. The experiment was divided into 5 groups: the minocycline-resistant K. pneumoniae strain 3 group (treated group), the group injected with FP-CATH9 (16 µg/mL) alone, the group with minocycline (16 µg/mL) alone, the group with FP-CATH9 (16 µg/mL) + minocycline (16 µg/mL), and the NS group (saline group). […]

[5] = tested on: P. aeruginosa ATCC 27853; assay: Disk diffusion plate assay, inhibition zone; type: cell-based, Pseudomonas aeruginosa; details: MH paper + 10 µL normal saline, Fig 3A
Experimental: as §1, §2, §3

[6] = tested on: Multidrug-resistant K. pneumoniae strain 3; assay: Time-killing curve; type: cell-based, Klebsiella pneumoniae; details: K. pneumoniae strain 3, 10^6 CFU/mL, 37°C, each agent 16 µg/mL
Experimental: After 4 h of treatment with minocycline only (16 µg/mL), drug-resistant bacterial cultures were again observed to be growing rapidly.
Refer to the method of a reference ([19]). The above clinical K. pneumoniae strain 3 was taken in logarithmic stage (oscillatory culture at 37°C) and diluted with fresh MH liquid medium into 10^6 CFU/mL bacterial suspension. […] The bacterial solution added with the drug was placed in an incubator at 37°C for shock culture, and the 50 µL bacterial solution was diluted 1,000 times at 0, 2, 4, 6, 8, 10, and 12 h, respectively. Then, the 50 µL diluted bacteria solution was coated on MH solid medium, and the bacterial colonies were counted after overnight culture at 37°C. Saline was used as a negative control.

[7] = tested on: S. aureus ATCC 29213; assay: MIC, broth microdilution (CLSI); type: cell-based; details: peptide alone, repeated three times
[8] = tested on: Clinical K. pneumoniae 1 (minocycline sensitive); assay: MIC, broth microdilution (CLSI); type: cell-based, Klebsiella pneumoniae; details: peptide alone, repeated three times
[9] = tested on: Clinical A. baumannii 2 (minocycline mediated); type: cell-based, Acinetobacter baumannii; details: peptide alone, repeated three times
[10] = tested on: A. baumannii ATCC 19606; assay: MIC, broth microdilution (CLSI); type: cell-based, Acinetobacter baumannii; details: peptide alone, repeated three times
[11] = tested on: Clinical A. baumannii 3 (minocycline resistance); details: peptide alone, repeated three times
Experimental: as §1, §2

[12] = tested on: Clinical P. aeruginosa 1 (minocycline resistance); details: peptide alone, repeated three times
Experimental: as §1, §2

[13] = tested on: Clinical P. aeruginosa 3 (minocycline resistance); details: peptide alone, repeated three times
Experimental: as §1, §2

[14] = tested on: Clinical P. aeruginosa 2 (minocycline resistance); details: peptide alone, repeated three times
Experimental: as §1, §2

[15] = tested on: Clinical K. pneumoniae 3 (minocycline resistance); details: peptide alone, repeated three times
Experimental: as §1, §2

[16] = tested on: P. aeruginosa ATCC 27853; assay: MIC, broth microdilution (CLSI); type: cell-based, Pseudomonas aeruginosa; details: peptide alone, repeated three times
[17] = tested on: K. pneumoniae ATCC 700603; type: cell-based, Klebsiella pneumoniae; details: peptide alone, repeated three times
[18] = tested on: Clinical K. pneumoniae 2 (minocycline mediated); type: cell-based, Klebsiella pneumoniae; details: peptide alone, repeated three times
[19] = tested on: E. coli ATCC BW25113; assay: MIC, broth microdilution (CLSI); type: cell-based, Escherichia coli; details: peptide alone, repeated three times
[20] = tested on: Clinical A. baumannii 1 (minocycline sensitive); assay: MIC, broth microdilution (CLSI); type: cell-based, Acinetobacter baumannii; details: peptide alone, repeated three times
[21] = tested on: bovine erythrocytes; assay: Hemolytic activity; type: cell-based; details: 5% bovine erythrocyte suspension, 128 µg/mL, 37°C, 1 h, absorbance 540 nm; 0.2% Triton X-100 positive control; mean ± SD
Experimental: Refer to the method of a reference ([21]). Determination of hemolytic activity. Fresh bovine blood cells (Guangzhou Hongquan Biotechnology Co., Ltd., No: HQ80074) were washed with normal saline three times and configured into 5% erythrocyte suspension. […] The supernatant was absorbed, and the absorption value was measured at a 540 nm wavelength. Normal saline was used as negative control, and 0.2% Triton X-100 was used as positive control. The percentage of hemolysis rate is calculated by the following formula: hemolysis rate % = A(sample) − A(negative control) / A(positive control) × 100%.

In the case of `CO/N=C(\C(=O)N[C@@H]1C(=O)N2C(C(=O)O)=C(CSc3nc(=O)c(=O)[nH]n3C)CS[C@H]12)c1csc(N)n1` [CRO, ceftriaxone], the “Inhibition zone (mm) Contains FP-CATH9” value [1] is reported as 6 mm and the “Inhibition zone (mm) Normal saline control” value [1] is reported as 6 mm.

For `CC(C)(O/N=C(\C(=O)N[C@@H]1C(=O)N2C(C(=O)[O-])=C(C[n+]3ccccc3)CS[C@H]12)c1csc(N)n1)C(=O)O` [CAZ, ceftazidime], the “Inhibition zone (mm) Contains FP-CATH9” value [1] was 6 mm and the “Inhibition zone (mm) Normal saline control” value [1] was 6 mm.

For `NCC[C@H](O)C(=O)N[C@@H]1C[C@H](N)[C@@H](O[C@H]2O[C@H](CN)[C@@H](O)[C@H](O)[C@H]2O)[C@H](O)[C@H]1O[C@H]1O[C@H](CO)[C@@H](O)[C@H](N)[C@H]1O` [AK, amikacin], the “Inhibition zone (mm) Contains FP-CATH9” value [1] was 6 mm and the “Inhibition zone (mm) Normal saline control” value [1] was 6 mm.

For `CN(C)c1ccc(O)c2c1C[C@H]1C[C@H]3[C@H](N(C)C)C(O)=C(C(N)=O)C(=O)[C@@]3(O)C(O)=C1C2=O` [minocycline], the “Inhibition zone, control” value ([1]; Multidrug-resistant K. pneumoniae strain 3, MH paper + 10 µL normal saline, Fig 3C) was 6 mm, the MIC ([2]; Klebsiella pneumoniae, read-out: MIC of minocycline alone) was 128 µg/mL and the “MIC of minocycline combined with FP-CATH9” value ([2]; multidrug-resistant K. pneumoniae, 5 × 10^5 CFU/mL, 37°C) was 2 µg/mL. For the same compound, the “Inhibition zone, control” value [3] was 11 mm, the protective effect [4] was “little protective effect” and the “Inhibition zone, control” value [5] was 6 mm. The “effect on bacterial growth at 10 h (time-killing curve)” value [6] was “no inhibitory effect”.

KRFKKFWKK [FP-CATH9] was tested, and the “FP-CATH9 MIC” value [7] was over 512 µg/mL, the “FP-CATH9 MIC” value [8] was over 512 µg/mL and the “FP-CATH9 MIC” value [9] was over 512 µg/mL. For the same compound, the “FP-CATH9 MIC” value [10] was over 512 µg/mL, the “FP-CATH9 MIC” value [11] was over 512 µg/mL and the “FP-CATH9 MIC” value [12] was over 512 µg/mL. The “FP-CATH9 MIC” value [13] was over 512 µg/mL, the “FP-CATH9 MIC” value [14] was over 512 µg/mL and the “FP-CATH9 MIC” value [15] was over 512 µg/mL. The “FP-CATH9 MIC” value [16] was over 512 µg/mL, the “FP-CATH9 MIC” value [17] was over 512 µg/mL and the “FP-CATH9 MIC” value [18] was over 512 µg/mL. For the same compound, the “FP-CATH9 MIC” value [19] was over 512 µg/mL, the “FP-CATH9 MIC” value [20] was over 512 µg/mL and the hemolysis [21] was 3.97% ± 0.42%.

With `Cc1cc(NS(=O)(=O)c2ccc(N)cc2)no1` [SXT, sulfamethoxazole] the “Inhibition zone (mm) Contains FP-CATH9” value [1] was 10.13 ± 0.12 mm and the “Inhibition zone (mm) Normal saline control” value [1] was 10.23 ± 0.17 mm.

With `C[C@@H](O)[C@H]1C(=O)N2C(C(=O)O)=C(S[C@@H]3CN[C@H](C(=O)N(C)C)C3)[C@H](C)[C@H]12` [MEM, meropenem] the “Inhibition zone (mm) Contains FP-CATH9” value [1] was 8.1 ± 0.08 mm and the “Inhibition zone (mm) Normal saline control” value [1] was 8.16 ± 0.12 mm.

For `C[C@@H](O)[C@H]1C(=O)N2C(C(=O)O)=C(SCCN=CN)C[C@H]12` [IPM, imipenem], the “Inhibition zone (mm) Contains FP-CATH9” value [1] was 9.03 ± 0.05 mm and the “Inhibition zone (mm) Normal saline control” value [1] was 9.06 ± 0.04 mm.

For `CC1(C)S[C@@H]2[C@H](NC(=O)[C@H](N)c3ccccc3)C(=O)N2[C@H]1C(=O)O` [AMP, ampicillin], the “Inhibition zone (mm) Contains FP-CATH9” value [1] was 6 mm and the “Inhibition zone (mm) Normal saline control” value [1] was 6 mm.

For `CNC(C)C1CCC(N)C(OC2C(N)CC(N)C(OC3OCC(C)(O)C(NC)C3O)C2O)O1` (centres unmarked) [GN, gentamicin], the “Inhibition zone (mm) Contains FP-CATH9” value [1] was 6 mm and the “Inhibition zone (mm) Normal saline control” value [1] was 6 mm.
